# Assay results reported in paper PMC6331809, “Antigenotoxicity and Tumor Growing Inhibition by Leafy Brassica carinata and Sinigrin” (Molecules, 2015).
# “And” between values parts separate entries of the source, which are not always exact repeats. Identical values can stand only once. Like-named read-outs stand apart in the source and are kept apart here. Marks after values point to notes of the source that are not given here.
# Assays:
# [1] = tested on: Drosophila melanogaster; assay: Toxicity in SMART: Drosophila adult survival after simple and combined (H2O2) treatment; format: in vivo; settings: for Survival, average: average over all assayed concentrations
# Procedure: Toxicity (T) was determined as percentage of survival adults with respect to 450 untreated 72 h old larvae from three independent experiments: T = (N° of emerging individuals in treatment/N° of emerging individuals in the negative control) × 100(1)
# [2] = tested on: hamster ovary cell line (CHO); settings: cited from earlier work
# [3] = tested on: Drosophila melanogaster
# Procedure: (§1) The genotoxic and antigenotoxic activity of lyophilized leaves of B. carinata and sinigrin were evaluated by the Drosophila Somatic Mutation and Recombination Test (SMART). Drosophila is a holometabolous animal which in vivo experiments permit to make analogies with humans due to the high percentage of homologue genes in common with human. […] Both characteristics make this test an optimal protocol in order to test molecules and complex mixtures with health benefices for humans. Two different D. melanogaster strains carrying visible wing genetic markers on the left arm of chromosome 3 were used: the flare (flr) strain flr^3/ln (3LR) TM3, Bd^s and the multiple wing-hair (mwh) strain mwh/mwh. These markers were selected due to their position in the Drosophila genome, covering a wide portion of one of their four chromosomes. Specifically, they affect the wing imaginal disks which present more cells with a uniform growth during larvae development than other Drosophila imaginal disks. This fact makes possible to detect easily a high number of mutations, somatic recombinations and disjunctions produced in the Drosophila DNA during all treatment periods by wing microscopic observation. In this sense, these markers are present in other genetic background (strains) but crosses produce mutations with a basal mutation rate too high and disturbing hair anomalous pattems. The marker flare (flr^3, 3_38.3) is a recessive mutation which produces individual wing hairs that are malformed. The flr^3 allele is a zygotic recessive lethal, which is maintained in the strain over the balancer chromosome TM3 (TM3, Bd^S: Third Multiple 3, Beaded-Serrate). The marker multiple wing hairs (mwh, 3_0.3) is a recessive mutation that is viable in homozygous flies, producing multiple hairs per cell instead of the wild type single-hair trichome. Two types of crosses were used: the standard cross with flr^3/TM3, Bd^S females mated to mwh/mwh males and the reciprocal cross.
# (§2) Hybrid eggs from crossing optimally fertile flies were collected over an 8-h period. Emerged larvae, 72 ± 4 h later, were cleaned up from remaining feeding medium, using sterile distilled water, and subsequently were transferred into treatment vials. These vials contained tested conditions which consisted of 0.85 g of Drosophila Instant Medium (Formula 4–24, Carolina Biological Supply, Burlington, NC, USA) wetted with 4 mL of a mixture of distilled-sterile water and the appropriate concentration of lyophilized plant or the single compound sinigrin.
# (§3) Genotoxicity/antigenotoxicity tests were performed following the standard protocol. Antigenotoxicity tests were carried out by mixing the genotoxin hydrogen peroxide (H2O2, Sigma-Aldrich) with the plant or single compound in appropriate concentrations.
# (§4) The groups consisting of approximately 100 larvae each were: (i) negative control (distilled water); (ii) mutagenic positive control (H2O2 0.12 M); (iii) 3 vials with increasing concentrations of B. carinata (1.25, 2.5, and 5 mg·mL^−1); and (iv) 4 vials with increasing concentrations of sinigrin (0.6, 1.2, 2.4 and 4.8 mM). Sinigrin concentrations were chosen on the basis of the sinigrin content of the B. carinata sample used in this study.
# (§5) Larvae were fed on both treated and control mediums until pupation (about 48 h). After emergence, resulting adult flies were collected from the treatment vials, sacrificed under CO2 narcotization and stored in a 70% ethanol solution in sterile water.
# (§6) Transheterozygous wings (mwhflr^+/mwh^+ flr^3) were mounted and wing hair mutations (spots) were scored. Both dorsal and ventral surfaces of the wings containing 22,000 cells were screened under a photonic microscope (Nikon, Amsterdam, Netherlands) at 400× magnification for the occurrence of individual spots (mwh or flr phenotype) or twin spots (mwh clone adjacent to flr clone).
# [4] = tested on: Drosophila melanogaster; assay: Antigenotoxicity in SMART, combined treatment with H2O2; format: in vivo; settings: for Large single spots > 2 cells; m = 5: mutation rate (number of spots) / Small single spots 1–2 cells; m = 2: diagnosis / Small single spots 1–2 cells; m = 2: mutation rate (number of spots) / Total spots m = 2: diagnosis / Total spots m = 2: mutation rate (number of spots) / Twin spots m = 5: mutation rate (number of spots): combined with 0.12 M H2O2; for Small single spots 1–2 cells; m = 2: diagnosis: key: + (positive); − (negative); for Total spots m = 2: diagnosis: key: + (positive); − (negative)
# Procedure: as §1, §2, §3, §4, §5, §6
# [5] = tested on: induced hepatocarcinogenesis in rats; design: method as in PMID 2387027; dose or concentration left out as unconfirmed; settings: orally in a diet; cited from earlier work
# [6] = tested on: Caenorhabditis elegans; design: method as in PMID 19277288; settings: C. elegans, cited from earlier work
# [7] = sinigrin 0.60 mM, simple treatment
# [8] = sinigrin 1.20 mM, simple treatment
# [9] = sinigrin 2.40 mM, simple treatment
# [10] = sinigrin 4.81 mM, simple treatment
compound,measurement,setting,value
"C=CCC(=NOS(=O)(=O)O)S[C@@H]1O[C@H](CO)[C@@H](O)[C@H](O)[C@H]1O (stereo in doubt) [Sinigrin, sinigrin]","Survival, average",[1]; combined treatments with 0.12 M H2O2,38.11%
same,"Survival, average",[1]; simple treatments,68.27%
same,Survival,"[1]; sinigrin 0.60 mM, combined with 0.12 M H2O2",25.56 * %
same,Survival,"[1]; sinigrin 0.60 mM, combined with 0.12 M H2O2, listed as sinigrin",25.56%
same,Survival,[1]; [7],56.44 * %
same,Survival,"[1]; sinigrin 1.20 mM, combined with 0.12 M H2O2",19.33 * %
same,Survival,"[1]; sinigrin 1.20 mM, combined with 0.12 M H2O2, listed as sinigrin",19.33%
same,Survival,[1]; [8],78.22 * %
same,Survival,"[1]; sinigrin 1.20 mM, simple treatment, listed as sinigrin",78.22%
same,Survival,"[1]; sinigrin 2.40 mM, combined with 0.12 M H2O2",47.33 * %
same,Survival,[1]; [9],61.56 * %
same,Survival,"[1]; sinigrin 4.81 mM, combined with 0.12 M H2O2",60.22 * %
same,Survival,"[1]; sinigrin 4.81 mM, combined with 0.12 M H2O2, listed as sinigrin",60.22%
same,Survival,[1]; [10],76.89 * %
same,Reduction of survival,"[1]; survival average, combined (H2O2) against simple treatments",~ 30%
same,Chromosome aberrations / sister chromatid exchanges,[2]; at concentrations of 2 mg·mL^−1,induced chromosome aberrations but not sister chromatid exchanges
same,Genotoxicity and cytotoxicity,[2],neither genotoxic nor cytotoxic
same,"Total mutation rate, average","[3]; average over all doses, simple treatment",0.15 spots per wing
same,Large single spots > 2 cells; m = 5: diagnosis,[3]; [7],−
same,Large single spots > 2 cells; m = 5: mutation rate (number of spots),[3]; [7],0.03 (1) spots per wing
same,Small single spots 1–2 cells; m = 2: diagnosis,[3]; [7],−
same,Small single spots 1–2 cells; m = 2: mutation rate (number of spots),[3]; [7],0.18 (7) spots per wing
same,Total spots m = 2: diagnosis,[3]; [7],−
same,Total spots m = 2: mutation rate (number of spots),[3]; [7],0.20 (8) spots per wing
same,Twin spots m = 5: mutation rate (number of spots),[3]; [7],0 spots per wing
same,Large single spots > 2 cells; m = 5: diagnosis,[3]; [8],−
same,Large single spots > 2 cells; m = 5: mutation rate (number of spots),[3]; [8],0.03 (1) spots per wing
same,Small single spots 1–2 cells; m = 2: diagnosis,[3]; [8],−
same,Small single spots 1–2 cells; m = 2: mutation rate (number of spots),[3]; [8],0.12 (4) spots per wing
same,Total spots m = 2: diagnosis,[3]; [8],−
same,Total spots m = 2: mutation rate (number of spots),[3]; [8],0.18 (6) spots per wing
same,Twin spots m = 5: diagnosis,[3]; [8],−
same,Twin spots m = 5: mutation rate (number of spots),[3]; [8],0.03 (1) spots per wing
same,Large single spots > 2 cells; m = 5: diagnosis,[3]; [9],−
same,Large single spots > 2 cells; m = 5: mutation rate (number of spots),[3]; [9],0.03 (1) spots per wing
same,Small single spots 1–2 cells; m = 2: diagnosis,[3]; [9],−
same,Small single spots 1–2 cells; m = 2: mutation rate (number of spots),[3]; [9],0.08 (3) spots per wing
same,Total spots m = 2: diagnosis,[3]; [9],−
same,Total spots m = 2: mutation rate (number of spots),[3]; [9],0.11 (4) spots per wing
same,Twin spots m = 5: mutation rate (number of spots),[3]; [9],0 spots per wing
same,Large single spots > 2 cells; m = 5: mutation rate (number of spots),[3]; [10],0 spots per wing
same,Small single spots 1–2 cells; m = 2: diagnosis,[3]; [10],−
same,Small single spots 1–2 cells; m = 2: mutation rate (number of spots),[3]; [10],0.14 (4) spots per wing
same,Total spots m = 2: diagnosis,[3]; [10],−
same,Total spots m = 2: mutation rate (number of spots),[3]; [10],0.14 (4) spots per wing
same,Twin spots m = 5: mutation rate (number of spots),[3]; [10],0 spots per wing
same,Large single spots > 2 cells; m = 5: mutation rate (number of spots),[4]; sinigrin 0.60 mM,0 spots per wing
same,Small single spots 1–2 cells; m = 2: diagnosis,[4]; sinigrin 0.60 mM,−
same,Small single spots 1–2 cells; m = 2: mutation rate (number of spots),[4]; sinigrin 0.60 mM,0.19 (6) spots per wing
same,Total spots m = 2: diagnosis,[4]; sinigrin 0.60 mM,−
same,Total spots m = 2: mutation rate (number of spots),[4]; sinigrin 0.60 mM,0.19 (6) spots per wing
same,Twin spots m = 5: mutation rate (number of spots),[4]; sinigrin 0.60 mM,0 spots per wing
same,Large single spots > 2 cells; m = 5: mutation rate (number of spots),[4]; sinigrin 1.20 mM,0 spots per wing
same,Small single spots 1–2 cells; m = 2: diagnosis,[4]; sinigrin 1.20 mM,−
same,Small single spots 1–2 cells; m = 2: mutation rate (number of spots),[4]; sinigrin 1.20 mM,0.20 (4) spots per wing
same,Total spots m = 2: diagnosis,[4]; sinigrin 1.20 mM,−
same,Total spots m = 2: mutation rate (number of spots),[4]; sinigrin 1.20 mM,0.20 (4) spots per wing
same,Twin spots m = 5: mutation rate (number of spots),[4]; sinigrin 1.20 mM,0 spots per wing
same,Large single spots > 2 cells; m = 5: mutation rate (number of spots),[4]; sinigrin 2.40 mM,0 spots per wing
same,Small single spots 1–2 cells; m = 2: diagnosis,[4]; sinigrin 2.40 mM,−
same,Total spots m = 2: diagnosis,[4]; sinigrin 2.40 mM,−
same,Twin spots m = 5: mutation rate (number of spots),[4]; sinigrin 2.40 mM,0 spots per wing
same,Percentage of inhibition of clone formation,"[4]; sinigrin 4.81 mM, against H2O2",84.61%
same,Large single spots > 2 cells; m = 5: mutation rate (number of spots),[4]; sinigrin 4.81 mM,0 spots per wing
same,Small single spots 1–2 cells; m = 2: diagnosis,[4]; sinigrin 4.81 mM,−
same,Small single spots 1–2 cells; m = 2: mutation rate (number of spots),[4]; sinigrin 4.81 mM,0.10 (1) spots per wing
same,Total spots m = 2: diagnosis,[4]; sinigrin 4.81 mM,−
same,Total spots m = 2: mutation rate (number of spots),[4]; sinigrin 4.81 mM,0.10 (1) spots per wing
same,Twin spots m = 5: mutation rate (number of spots),[4]; sinigrin 4.81 mM,0 spots per wing
same,Effect on induced hepatocarcinogenesis,[5],able to inhibit induced hepatocarcinogenesis
same,Non-toxic up to the concentration,[6],≤ 80 g/L
same,LC50,[6]; with addition of myrosinase,500 µg/mL
"C=CCN=C=S [AITC, allyl-ITCs, reference compound]",Genotoxicity,[2]; at high cytotoxic doses,not genotoxic
same,Lethal concentration value,[6],0.04 g/L
"OO [H2O2, hydrogen peroxide, reference compound]",Survival,"[1]; H2O2 0.12 M, simple treatment, emerged adults vs H2O control",37.78% and 37.78 * %
same,Large single spots > 2 cells; m = 5: diagnosis,[3]; in vivo,−
same,Large single spots > 2 cells; m = 5: mutation rate (number of spots),[3]; in vivo,0.07 (11) spots per wing
same,Small single spots 1–2 cells; m = 2: diagnosis,[3]; in vivo,+
same,Small single spots 1–2 cells; m = 2: mutation rate (number of spots),[3]; in vivo,0.60 (94) spots per wing
same,Total spots m = 2: diagnosis,[3]; in vivo,+
same,Total spots m = 2: mutation rate (number of spots),[3]; in vivo,0.65 (109) spots per wing
same,Twin spots m = 5: diagnosis,[3]; in vivo,−
same,Twin spots m = 5: mutation rate (number of spots),[3]; in vivo,0.06 (4) spots per wing
